Assay results: the supplement of paper PMC4862054

Key:
Assay in all cases: normalised viability (% of control), CellTiter-Blue; higher = more viable cells (about 100 = DMSO control)
BT-474 [1] = conditions: 10 nM; incubation time: 72 h
Method: (§1)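 DSRT, CellTiter-Blue viability, 72 h incubation. Signal is normalised to DMSO and benzethonium chloride controls. Value is the normalised response at dose 3.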

BT-549 [2] = conditions: 10 nM; incubation time: 72 h
Method: as §1

CAL-120 [3] = conditions: 10 nM; incubation time: 72 h
Method: as §1

CAL-148 = conditions: 1 nM; incubation time: 72 h
Method: as §1

CAL-51 [4] = conditions: 1 nM; incubation time: 72 h
Method: as §1

CAL-85-1 [5] = conditions: 1 nM; incubation time: 72 h
Method: as §1

DU-4475 [6] = conditions: 1 nM; incubation time: 72 h
Method: as §1

HCC1143 [7] = conditions: 10 nM; incubation time: 72 h
Method: as §1

HCC1599 = conditions: 10 nM; incubation time: 72 h
Method: as §1

HCC1937 = conditions: 10 nM; incubation time: 72 h
Method: as §1

HDQ-P1 [8] = conditions: 1 nM; incubation time: 72 h
Method: as §1

MDA-MB-231 = conditions: 10 nM; incubation time: 72 h
Method: as §1

MDA-MB-436 = conditions: 10 nM; incubation time: 72 h
Method: as §1

MDA-MB-453 [9] = conditions: 1 nM; incubation time: 72 h
Method: as §1

MDA-MB-468 [10] = conditions: 10 nM; incubation time: 72 h
Method: as §1

SK-BR-3 [11] = conditions: 10 nM; incubation time: 72 h
Method: as §1

BT-474 [12] = conditions: incubation time: 72 h
Summary of the method: (§2)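 Each value is normalised viability at a single listed concentration of the series. Breast cancer cell lines in 384-well plates were incubated 72 h with compound and read by CellTiter-Blue fluorescence at 560/590 nm, with vehicle set to 100 and a positive kill control to 0 on every plate.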

BT-549 [13] = conditions: incubation time: 72 h
Summary of the method: as §2

CAL-120 [14] = conditions: incubation time: 72 h
Summary of the method: as §2

CAL-51 [15] = conditions: incubation time: 72 h
Summary of the method: as §2

CAL-85-1 [16] = conditions: incubation time: 72 h
Summary of the method: as §2

DU-4475 [17] = conditions: incubation time: 72 h
Summary of the method: as §2

HCC1143 [18] = conditions: incubation time: 72 h
Summary of the method: as §2

HDQ-P1 [19] = conditions: incubation time: 72 h
Summary of the method: as §2

Hs578T = conditions: incubation time: 72 h
Summary of the method: as §2

MDA-MB-453 [20] = conditions: incubation time: 72 h
Summary of the method: as §2

MDA-MB-468 [21] = conditions: incubation time: 72 h
Summary of the method: as §2

MFM-223 = conditions: incubation time: 72 h
Summary of the method: as §2

SK-BR-3 [22] = conditions: incubation time: 72 h
Summary of the method: as §2

Cc1c2oc3c(C)ccc(C(=O)N[C@@H]4C(=O)N[C@H](C(C)C)C(=O)N5CCC[C@H]5C(=O)N(C)CC(=O)N(C)[C@@H](C(C)C)C(=O)O[C@@H]4C)c3nc-2c(C(=O)N[C@@H]2C(=O)N[C@H](C(C)C)C(=O)N3CCC[C@H]3C(=O)N(C)CC(=O)N(C)[C@@H](C(C)C)C(=O)O[C@@H]2C)c(N)c1=O [Dactinomycin]
Conditions	normalised viability [%]
BT-474 [1]	73.5
BT-549 [2]	17.8
CAL-51 [4]	77
CAL-85-1 [5]	50.3
CAL-120 [3]	31.4
CAL-148	46.5
DU-4475 [6]	32.1
HCC1143 [7]	46.5
HCC1599	49.3
HCC1937	41.3
HDQ-P1 [8]	59.2
MDA-MB-231	27.3
MDA-MB-436	46.4
MDA-MB-453 [9]	49.7
MDA-MB-468 [10]	18.9
SK-BR-3 [11]	24.6

normalised viability [%]
Conditions	0.3 nM	1 nM	3 nM	10 nM	100 nM	1000 nM
BT-474 [12]	–	73.3	–	–	25.2	24.1
BT-549 [13]	–	56.6	–	–	4.94	4.47
CAL-51 [15]	99.7	–	50	17.8	–	–
CAL-85-1 [16]	79.1	–	43.6	40.8	–	–
CAL-120 [14]	–	51	–	–	11.9	9.97
DU-4475 [17]	89.3	–	2.85	0.2	–	–
HCC1143 [18]	–	50.3	–	–	17.6	16
HDQ-P1 [19]	85.1	–	45.2	35.9	–	–
Hs578T	–	53.8	–	–	3.41	1.67
MDA-MB-453 [20]	85.1	–	42.9	40.5	–	–
MDA-MB-468 [21]	–	60.3	–	–	3.39	4.33
MFM-223	–	86.2	–	–	8.99	10.4
SK-BR-3 [22]	–	76	–	–	3.88	4.85

COc1cccc2c1C(=O)c1c(O)c3c(c(O)c1C2=O)C[C@@](O)(C(=O)CO)C[C@@H]3O[C@H]1C[C@H](N)[C@H](O)[C@H](C)O1 [Doxorubicin]
Conditions	normalised viability [%]
BT-474 [1]	95.5
BT-549 [2]	98.9
CAL-51 [4]	105
CAL-85-1 [5]	95.7
CAL-120 [3]	84.6
CAL-148	96.6
DU-4475 [6]	103
HCC1143 [7]	83.4
HCC1599	102
HCC1937	98.9
HDQ-P1 [8]	108
MDA-MB-231	78.6
MDA-MB-436	92.4
MDA-MB-453 [9]	99.1
MDA-MB-468 [10]	98.8
SK-BR-3 [11]	75.6

normalised viability [%]
Conditions	0.3 nM	1 nM	3 nM	10 nM	100 nM	1000 nM
BT-474 [12]	–	97.3	–	–	84.7	34.1
BT-549 [13]	–	114	–	–	76.5	5.36
CAL-51 [15]	102	–	100	96.2	–	–
CAL-85-1 [16]	90	–	92.3	90.4	–	–
CAL-120 [14]	–	96.2	–	–	52.6	6.93
DU-4475 [17]	93.8	–	91.6	64	–	–
HCC1143 [18]	–	101	–	–	60.2	32.2
HDQ-P1 [19]	104	–	96.8	93	–	–
Hs578T	–	115	–	–	71.3	6.05
MDA-MB-453 [20]	105	–	102	101	–	–
MDA-MB-468 [21]	–	99.7	–	–	65.9	4.32
MFM-223	–	91.8	–	–	98	21.4
SK-BR-3 [22]	–	87.9	–	–	41.3	8.28
